Experimental data reported in patent US9586951B2 (FUJIFILM Corporation, priority 2013, dated 2017).
pIC50: −log10 of the molar value.

Molecular target: T1, ATM (Homo sapiens, UniProt Q13315)
T1 construct: detecting phosphorylation of Chk2 in a human non-small cell lung cancer cell line NCI-H460 (ATCC company); host or cells: NCI-H460 human non-small cell lung cancer cells
Assay: ATM inhibition test (phosphorylation of Chk2 generated by ionizing radiation, AlphaScreen SureFire)
Type: cell-based
Conditions: phosphorylated Chk2 in NCI-H460 cells, ionizing radiation 8Gy, 1 hour after test compound treatment; read-out: ATM inhibitory activity
Outline: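 NCI-H460 cells treated with compound for 1 hour, then irradiated with 8Gy and incubated 1 hour at 37° C. Phospho-Chk2 measured by AlphaScreen SureFire. Inhibition ratio calculated relative to untreated irradiated and non-irradiated wells.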

T1 sequence (Q13315 whole entry): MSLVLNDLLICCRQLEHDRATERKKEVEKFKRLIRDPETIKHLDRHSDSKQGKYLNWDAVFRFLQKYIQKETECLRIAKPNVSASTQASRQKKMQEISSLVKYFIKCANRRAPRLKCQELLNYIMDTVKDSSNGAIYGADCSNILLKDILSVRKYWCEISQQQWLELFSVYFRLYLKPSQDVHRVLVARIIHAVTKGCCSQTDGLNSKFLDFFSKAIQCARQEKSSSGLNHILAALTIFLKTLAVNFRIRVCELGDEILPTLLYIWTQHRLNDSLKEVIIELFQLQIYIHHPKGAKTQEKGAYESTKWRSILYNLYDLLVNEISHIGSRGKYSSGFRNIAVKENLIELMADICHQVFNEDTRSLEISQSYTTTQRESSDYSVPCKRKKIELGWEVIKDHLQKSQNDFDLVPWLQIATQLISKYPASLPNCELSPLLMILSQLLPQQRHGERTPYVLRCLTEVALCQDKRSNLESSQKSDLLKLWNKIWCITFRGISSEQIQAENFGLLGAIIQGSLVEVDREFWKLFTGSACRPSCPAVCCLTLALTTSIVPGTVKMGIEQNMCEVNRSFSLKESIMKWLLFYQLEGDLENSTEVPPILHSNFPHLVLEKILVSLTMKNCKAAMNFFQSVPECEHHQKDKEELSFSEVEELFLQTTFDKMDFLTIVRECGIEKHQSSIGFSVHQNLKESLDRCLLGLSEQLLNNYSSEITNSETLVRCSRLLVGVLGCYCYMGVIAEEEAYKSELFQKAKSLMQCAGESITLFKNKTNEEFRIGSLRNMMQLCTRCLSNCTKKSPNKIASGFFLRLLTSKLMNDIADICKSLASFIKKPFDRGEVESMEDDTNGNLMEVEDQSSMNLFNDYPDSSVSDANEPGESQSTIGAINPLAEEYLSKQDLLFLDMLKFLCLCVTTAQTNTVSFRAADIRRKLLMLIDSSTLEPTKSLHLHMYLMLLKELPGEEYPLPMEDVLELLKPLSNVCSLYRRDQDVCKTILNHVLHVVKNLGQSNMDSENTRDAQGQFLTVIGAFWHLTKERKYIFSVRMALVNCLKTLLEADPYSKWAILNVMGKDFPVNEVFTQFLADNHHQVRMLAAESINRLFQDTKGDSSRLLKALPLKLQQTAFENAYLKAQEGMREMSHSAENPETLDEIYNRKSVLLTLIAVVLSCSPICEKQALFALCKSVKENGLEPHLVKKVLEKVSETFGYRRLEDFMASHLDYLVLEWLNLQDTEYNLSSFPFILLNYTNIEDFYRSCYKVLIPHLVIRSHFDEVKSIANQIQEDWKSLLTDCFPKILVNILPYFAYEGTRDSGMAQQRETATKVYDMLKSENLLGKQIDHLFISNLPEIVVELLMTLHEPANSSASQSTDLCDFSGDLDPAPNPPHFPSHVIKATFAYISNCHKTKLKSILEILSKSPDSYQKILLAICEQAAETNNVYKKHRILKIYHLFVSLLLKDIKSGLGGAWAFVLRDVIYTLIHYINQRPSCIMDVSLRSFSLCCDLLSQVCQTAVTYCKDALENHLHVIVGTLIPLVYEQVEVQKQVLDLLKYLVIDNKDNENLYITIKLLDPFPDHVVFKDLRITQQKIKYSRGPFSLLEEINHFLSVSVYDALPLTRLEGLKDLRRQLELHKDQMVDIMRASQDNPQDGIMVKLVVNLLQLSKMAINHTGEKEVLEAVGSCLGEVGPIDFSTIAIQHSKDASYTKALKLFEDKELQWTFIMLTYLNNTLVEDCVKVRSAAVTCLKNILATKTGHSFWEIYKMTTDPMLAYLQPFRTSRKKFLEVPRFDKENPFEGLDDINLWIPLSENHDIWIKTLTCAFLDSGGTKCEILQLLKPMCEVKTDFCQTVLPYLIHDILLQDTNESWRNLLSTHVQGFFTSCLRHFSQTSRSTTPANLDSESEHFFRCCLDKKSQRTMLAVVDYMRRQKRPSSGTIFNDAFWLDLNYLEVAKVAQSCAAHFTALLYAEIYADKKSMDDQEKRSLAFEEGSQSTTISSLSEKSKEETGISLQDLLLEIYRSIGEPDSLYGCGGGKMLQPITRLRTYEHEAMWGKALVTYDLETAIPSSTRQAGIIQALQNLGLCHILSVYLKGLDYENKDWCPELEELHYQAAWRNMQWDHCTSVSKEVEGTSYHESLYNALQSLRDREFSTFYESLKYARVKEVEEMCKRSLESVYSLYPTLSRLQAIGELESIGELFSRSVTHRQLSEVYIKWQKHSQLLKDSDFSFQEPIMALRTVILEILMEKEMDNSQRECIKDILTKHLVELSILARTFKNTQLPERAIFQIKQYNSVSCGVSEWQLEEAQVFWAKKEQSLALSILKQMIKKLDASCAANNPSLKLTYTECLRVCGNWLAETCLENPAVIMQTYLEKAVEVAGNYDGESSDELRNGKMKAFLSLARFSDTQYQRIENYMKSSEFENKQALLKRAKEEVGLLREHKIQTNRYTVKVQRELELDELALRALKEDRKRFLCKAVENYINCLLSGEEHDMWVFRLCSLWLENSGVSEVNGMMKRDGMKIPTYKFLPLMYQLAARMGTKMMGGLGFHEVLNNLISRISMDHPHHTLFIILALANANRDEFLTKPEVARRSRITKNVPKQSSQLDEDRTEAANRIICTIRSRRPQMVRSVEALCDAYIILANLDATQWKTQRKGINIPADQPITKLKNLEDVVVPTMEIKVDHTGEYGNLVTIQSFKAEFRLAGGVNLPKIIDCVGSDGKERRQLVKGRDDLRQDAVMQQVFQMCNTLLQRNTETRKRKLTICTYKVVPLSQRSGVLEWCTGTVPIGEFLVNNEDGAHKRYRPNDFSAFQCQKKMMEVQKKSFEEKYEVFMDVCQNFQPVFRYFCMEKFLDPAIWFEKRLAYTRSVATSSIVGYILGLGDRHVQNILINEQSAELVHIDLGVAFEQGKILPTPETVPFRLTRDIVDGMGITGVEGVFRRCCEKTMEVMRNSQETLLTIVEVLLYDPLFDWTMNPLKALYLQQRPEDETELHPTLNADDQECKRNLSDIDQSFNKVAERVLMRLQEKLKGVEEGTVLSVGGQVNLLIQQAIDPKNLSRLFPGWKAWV

Row | Structure (SMILES) | pIC50
1 | Cc1ccc(C(CCN2CCCCC2)Nc2ccc3c(c2)Sc2cccc(-c4cc(N5CCOCC5)cc(=O)[nH]4)c2S3)nc1 (single isomer, unassigned) [Example 1-51-6, 6-(7-((1-(5-Methylpyridin-2-yl)-3-(piperidin-1-yl)propyl)amino)thianthren-1-yl)-4-morpholino pyridin-2(1H)-one] | > 7.00
2 | COCCN1CCC(C(Nc2ccc3c(c2)Sc2cccc(-c4cc(N5CCOCC5)cc(=O)[nH]4)c2S3)c2ccc(C)cn2)CC1 (stereo not drawn) [Example 1-56-7, 6-(7-(((1-(2-Methoxyethyl)piperidin-4-yl)(5-methylpyridin-2-yl)methyl)amino)thianthren-1-yl)-4-morpholino pyridin-2(1H)-one] | > 7.00
3 | CC(Nc1ccc2c(c1)Cc1cccc(-c3cc(N4CCOCC4)cc(=O)[nH]3)c1O2)c1cccs1 (stereo not drawn) [Example 2-14-44, 4-Morpholino-6-(7-((1-(thiophen-2-yl)ethyl)amino)-9H-xanthen-4-yl) pyridin-2(1H)-one] | 6.30 to 7.00
4 | CC(Nc1ccc2c(c1)Sc1cccc(-c3cc(N4CCOCC4)cc(=O)[nH]3)c1S2)C(=O)N1CCOCC1 (stereo not drawn) [Example 1-18-5] | 5.70 to 6.30
5 | COc1ncc(CNc2ccc3c(c2)Cc2ccnc(-c4cc(N5CCOCC5)cc(=O)[nH]4)c2O3)cn1 [Example 2-42-1, 6-(7-(((2-Methoxypyrimidin-5-yl)methyl)amino)-5H-chromeno[2,3-c]pyridin-1-yl)-4-morpholinopyridin-2(1H)-one] | 5.70 to 6.30
6 | CN1CCC(Nc2ccc3c(c2)Cc2cccc(-c4cc(N5CCOCC5)cc(=O)[nH]4)c2S3)CC1 [Example 3-8-13, 6-(7-((1-Methylpiperidin-4-yl)amino)-9H-thioxanthen-4-yl)-4-morpholino pyridin-2 (1H)-one] | 6.30 to 7.00
7 | CC[C@@H](C(C)Nc1ccc2c(c1)Sc1cccc(-c3cc(N4CCOCC4)cc(=O)[nH]3)c1S2)N1CCOCC1 (stereo partly drawn) [Example 1-21-3, 4-Morpholino-6-(7-(((3S)-3-morpholinopentan-2-yl)amino)thianthren-1-yl) pyridin-2(1H)-one] | 6.30 to 7.00
8 | COCC(CN1CCN(C)CC1)Nc1ccc2c(c1)Sc1cccc(-c3cc(N4CCOCC4)cc(=O)[nH]3)c1S2 (stereo not drawn) [Example 1-17-3, 6-(7-((1-Methoxy-3-(4-methylpiperazin-1-yl)propan-2-yl)amino)thianthren-1-yl)-4-morpholinopyridin-2(1H)-one] | 6.30 to 7.00
9 | CCOC(=O)c1cccc(CNc2ccc3c(c2)Cc2cccc(-c4cc(N5CCOCC5)cc(=O)[nH]4)c2O3)n1 [Example 2-14-73, Ethyl 6-(((5-(4-morpholino-6-oxo-1,6-dihydropyridin-2-yl)-9H-xanthen-2-yl)amino)methyl)picolinate] | 6.30 to 7.00
10 | O=c1cc(N2CCOCC2)cc(-c2cccc3c2Sc2ccc(NCc4ccc(Cl)nc4)cc2S3)[nH]1 [Example 1-44-2, 6-(7-(((6-Chloropyridin-3-yl)methyl)amino)thianthren-1-yl)-4-morpholino pyridin-2(1H)-one] | > 7.00
11 | Cc1cnc(CNc2ccc3c(c2)Cc2cccc(-c4cc(N5CCOCC5)cc(=O)[nH]4)c2O3)s1 [Example 2-14-47, 6-(7-(((5-Methylthiazol-2-yl)methyl)amino)-9H-xanthen-4-yl)-4-morpholino pyridin-2(1H)-one] | 6.30 to 7.00
12 | CC(Nc1ccc2c(c1)Cc1cccc(-c3cc(N4CCOCC4)cc(=O)[nH]3)c1O2)c1cnc(N(C)C)cn1 (stereo not drawn) [Example 2-14-53, 6-(7-((1-(5-(Dimethylamino)pyrazin-2-yl)ethyl)amino)-9H-xanthen-4-yl)-4-morpholino pyridin-2(1H)-one] | 6.30 to 7.00
13 | O=c1cc(N2CCOCC2)cc(-c2cccc3c2Sc2ccc(NCc4ccncn4)cc2S3)[nH]1 [Example 1-12-36, 4-Morpholino-6-(7-((pyrimidin-4-ylmethyl)amino)thianthren-1-yl) pyridin-2(1H)-one] | 6.30 to 7.00
14 | COC[C@H](CN1CCOCC1)Nc1ccc2c(c1)Sc1cccc(-c3cc(=O)cc(N4CCOCC4)o3)c1S2 [Example 11-3, (S)-2-(7-((1-methoxy-3-morpholinopropan-2-yl)amino)thianthren-1-yl)-6-morpholino-4H-pyran-4-one] | > 7.00
15 | O=c1cc(N2CCOCC2)cc(-c2cccc3c2Oc2ccc(NCc4ccccc4)cc2C3)[nH]1 [Example 2-14-3, 6-(7-(Benzylamino)-9H-xanthen-4-yl)-4-morpholino pyridin-2(1H)-one] | 6.30 to 7.00
16 | COC1CCN(CCNc2ccc3c(c2)Sc2cccc(-c4cc(N5CCOCC5)cc(=O)[nH]4)c2S3)CC1 [Example 1-10-15, 6-(7-((2-(4-Methoxypiperidin-1-yl)ethyl)amino)thianthren-1-yl)-4-morpholino pyridin-2(1H)-one] | 6.30 to 7.00
17 | O=c1cc(N2CCOCC2)cc(-c2cccc3c2Oc2ccc(NC4CCN(Cc5ccc(C(F)(F)F)nc5)CC4)cc2C3)[nH]1 [Example 2-28-15, 4-Morpholino-6-(7-((1-((6-(trifluoromethyl)pyridin-3-yl)methyl)piperidin-4-yl)amino)-9H-xanthen-4-yl) pyridin-2(1H)-one] | 5.70 to 6.30

Row | Structure (SMILES) | pIC50
18 | COCCN(C)CCC(Nc1ccc2c(c1)Sc1cccc(-c3cc(N4CCOCC4)cc(=O)[nH]3)c1S2)c1ccc(C)cn1 (single isomer, unassigned) [Example 10-3-3, 6-(7-((3-((2-Methoxyethyl) (methyl)amino)-1-(5-methylpyridin-2-yl)propyl)amino)thiarnthren-l-yl)-4-morpholino pyridin-2(1H)-one] | > 7.00
19 | Cc1ccc(C2(Nc3ccc4c(c3)Sc3cccc(-c5cc(N6CCOCC6)cc(=O)[nH]5)c3S4)CCC2)nc1 [Example 1-50-3, 6-(7-((1-(5-Methylpyridin-2-yl)cyclobutyl)amino)thianthren-1-yl)-4-morpholino pyridin-2(1H)-one] | 6.30 to 7.00
20 | O=c1cc(N2CCOCC2)cc(-c2cccc3c2Oc2ccc(NC4CCN(CCC5CCCCC5)CC4)cc2C3)[nH]1 [Example 2-30-5, 6-(7-((1-(2-Cyclohexylethyl)piperidin-4-yl)amino)-9H-xanthen-4-yl)-4-morpholino pyridin-2 (1H)-one] | 5.70 to 6.30
21 | CC(Nc1ccc2c(c1)Cc1cccc(-c3cc(N4CCOCC4)cc(=O)[nH]3)c1O2)c1ccncn1 (stereo not drawn) [Example 2-14-50, 4-Morpholino-6-(7-((1-(pyrimidin-4-yl)ethyl)amino)-9H-xanthen-4-yl) pyridin-2(1H)-one] | 5.70 to 6.30
22 | Cc1cccc(CNc2ccc3c(c2)Cc2cccc(-c4cc(N5CCOCC5)cc(=O)[nH]4)c2O3)n1 [Example 2-2-24, 6-(7-(((6-Methylpyridin-2-yl)methyl)amino)-9H-xanthen-4-yl)-4-morpholino pyridin-2(1H)-one] | 6.30 to 7.00
23 | CC(Nc1ccc2c(c1)Cc1cccc(-c3cc(N4CCOCC4)cc(=O)[nH]3)c1O2)C(=O)N1CCCC1 (stereo not drawn) [Example 2-15, 4-Morpholino-6-(7-((1-oxo-1-(pyrrolidin-1-yl)propan-2-yl)amino)-9H-xanthen-4-yl)pyridin-2(1H)-one] | 6.30 to 7.00
24 | O=c1cc(N2CCOCC2)cc(-c2cccc3c2Sc2ccc(NC4CCN(Cc5ccccn5)CC4)cc2S3)[nH]1 [Example 1-24-19, 4-Morpholino-6-(7-((1-(pyridin-2-ylmethyl)piperidin-4-yl)amino)thianthren-1-yl)pyridin-2 (1H)-one] | 6.30 to 7.00
25 | Cc1ccc(CN2CCC(Nc3ccc4c(c3)Cc3cccc(-c5cc(N6CCOCC6)cc(=O)[nH]5)c3O4)CC2)cn1 [Example 2-28-10, 6-(7-((1-((6-Methylpyridin-3-yl)methyl)piperidin-4-yl)amino)-9H-xanthen-4-yl)-4-morpholino pyridin-2(1H)-one] | 6.30 to 7.00
26 | CC(Nc1ccc2c(c1)Cc1cccc(-c3cc(N4CCOCC4)cc(=O)[nH]3)c1O2)c1cccnc1 (single isomer, unassigned) [Example 2-36-2, 4-Morpholino-6-(7-((1-(pyridin-3-yl)ethyl)amino)-9H-xanthen-4-yl)pyridin-2(1H)-one] | 6.30 to 7.00
27 | Nc1ccc2c(c1)CCc1cccc(-c3cc(N4CCOCC4)cc(=O)[nH]3)c1O2 [Example 2-50, 6-(8-Amino-10,11-dihydrodibenz[b,f]oxepin-4-yl)-4-morpholinopyridin-2(1H)-one] | 5.70 to 6.30
28 | O=c1cc(N2CCOCC2)cc(-c2cccc3c2Oc2ccc(NCc4ccsc4)cc2C3)[nH]1 [Example 2-14-35, 4-Morpholino-6-(7-((thiophen-3-ylmethyl)amino)-9H-xanthen-4-yl) pyridin-2(1H)-one] | 6.30 to 7.00
29 | CC(Nc1ccc2c(c1)Sc1cccc(-c3cc(N4CCOCC4)cc(=O)[nH]3)c1S2)c1nccc(CO)n1 (stereo not drawn) [Example 1-12-86, 6-(7-((1-(4-(Hydroxymethyl)pyrimidin-2-yl)ethyl)amino)thianthren-1-yl)-4-morpholino pyridin-2(1H)-one] | 6.30 to 7.00
30 | O=c1cc(N2CCOCC2)cc(-c2cccc3c2Oc2ccc(NCc4ccccn4)cc2S3)[nH]1 [Example 4-4-24, 4-Morpholino-6-(8-((pyridin-2-ylmethyl)amino)phenoxathiin-4-yl) pyridin-2(1H)-one] | 6.30 to 7.00
31 | O=c1cc(N2CCOCC2)cc(-c2nccc3c2Oc2ccc(NCc4cccc(Cl)n4)cc2C3)[nH]1 [Example 2-41-8, 6-(7-(((6-Chloropyridin-2-yl)methlyl)anlino)-5H-chromeno [2,3-c]pyridin-1-yl)-4-morpholino pyridin-2(1H)-one] | 6.30 to 7.00
32 | CCCCC(Nc1ccc2c(c1)Sc1cccc(-c3cc(N4CCOCC4)cc(=O)[nH]3)c1S2)[C@H](C)N (stereo partly drawn) [Example 1-20-3, 6-(7-(((2S)-2-Aminoheptan-3-yl)amino)thianthren-1-yl)-4-morpholino pyridin-2(1H)-one] | 6.30 to 7.00
33 | CCOc1ccnc(CN2CCC(Nc3ccc4c(c3)Cc3cccc(-c5cc(N6CCOCC6)cc(=O)[nH]5)c3O4)CC2)c1 [Example 2-28-36, 6-(7-((1-((4-Ethoxypyridin-2-yl)methyl)piperidin-4-yl)amino)-9H-xanthen-4-yl)-4-morpholino pyridin-2(1H)-one] | 6.30 to 7.00
